What was measured:
Assay type in all cases: cell-based
GP2d cells = assay: Inhibition of 3D proliferation of GP2d cells (CellTiter-Glo 3D); settings: 120 h, 5 days
Method: (§1) The inhibitory effects of the compounds of the present disclosure on the KRAS target were evaluated by assessing the inhibitory effects of the compounds of the present disclosure on the 3D proliferation of GP2d and AGS cells.
(§2) GP2d cells were cultured in a complete culture medium, namely a DMEM/high glucose culture medium (Hyclone, SH30243.01) containing 10% fetal bovine serum (Corning, 35-076-CV). On the first day of the experiment, the GP2d cells were seeded into a 96-well low-adsorption plate (Corning, CLS7007-24EA) with a complete culture medium at a density of 1000 cells/well, with each well containing 90 μL of a cell suspension. The plate was centrifuged at 2000 rpm for 5 min at room temperature and then incubated overnight in a 37° C., 5% CO2 cell incubator.
(§3) The next day, the test compounds, serially diluted in a complete culture medium, were added at 10 μL/well. The final concentrations of the compounds for GP2d cells were 9 concentration points obtained by 5-fold serial dilution from 1 μM, and the final concentrations of the compounds for AGS cells were 9 concentration points obtained by 5-fold serial dilution from […]. A blank control containing 0.5% DMSO was set for both types of cells. The plates were incubated in a 37° C., 5% CO2 cell incubator for 5 days. On the seventh day, the 96-well cell culture plates were taken out, and 50 μL of the CellTiter-Glo® 3D Cell Viability Assay reagent (Promega, G^9682) was added to each well. The plates were shaken at room temperature in the dark for 25 min. The contents in the wells were pipetted for good uniformity, and 100 μL of the mixture was transferred from each well to a white impermeable 96-well plate (PerkinElmer, 6005290). The luminescence signal values were obtained using a multi-mode microplate reader (PerkinElmer, EnVision2105).

AGS cells = assay: Inhibition of 3D proliferation of AGS cells (CellTiter-Glo 3D); settings: Homo sapiens, 120 h, 5 days
Method: as §1
as §2, with “AGS” for “GP2d”, “an RPM11640” for “a DMEM/high glucose culture”, “SH30809.01)” for “SH30243.01)”
as §3

AsPC-1 cells = assay: Inhibition of 3D proliferation of AsPC-1 cells (CellTiter-Glo 3D); settings: Homo sapiens, ASPC1, 120 h, 5 days
Method: On the first day of the experiment, well-grown AsPC-1 cells with 70%-80% confluency were digested and resuspended in an RPMI 1640 culture medium (Hyclone, SH30809.01) containing 10% FBS, and the cell density was adjusted to the desired level. The cell suspension was added to a U-shaped low-adsorption 96-well plate (Corning, CLS7007-24EA) at 90 μL/well, with a cell density of 1500 cells/well. The cell plate was centrifuged at 2500 rpm for 5 min and then incubated overnight in a 37° C., 5% CO2 incubator. The next day, 20 mM test compounds dissolved in DMSO were diluted to an initial concentration of 2 mM and then serially diluted 5-fold, and a total of 9 concentration points were obtained. Control wells were set using DMSO. The serially diluted compounds were then further diluted 20-fold with a culture medium. The test compounds, diluted with the culture medium, were added to the cell plate at 10 μL/well, with the final concentrations of the compounds being 9 concentration points obtained by 5-fold serial dilution from an initial concentration of 10 μM. Cell wells containing 0.5% DMSO were set as vehicle control wells, and wells containing only the culture medium and 0.5% DMSO were set as blank control wells. A duplicate well was set for each concentration of the compounds and the control wells, with the final concentration of DMSO in each well being 0.5%. The cell plate was centrifuged at 2500 rpm for 3 min and then incubated in a 37° C., 5% CO2 incubator for 5 days. On the seventh day, the 96-well cell culture plate was taken out, and 50 μL of the CellTiter-Glo® Luminescent 3D Cell Viability Assay reagent (Promega, G^9683) was added to each well. The plates were shaken at room temperature in the dark for 25 min. The contents in the wells were pipetted up and down for good uniformity, and then 100 μL of the mixture was transferred from each well to a white impermeable OptiPlate™-96-well plate (PerkinElmer, 6005290). The luminescence signal values were obtained using a multi-mode microplate reader (PerkinElmer, EnVision2105).
The inhibition rate was calculated using the formula: inhibition rate=(luminescence valuevehicle control well−luminescence valuetest compound)/(luminescence valuevehicle control well−luminescence valueblank control well)×100%. Curves were plotted using GraphPad Prism software based on the various concentrations of the compounds and the corresponding inhibition rates, and IC50 values for the compounds were calculated.

| Compound | IC50 (GP2d cells) [nM] | IC50 (AGS cells) [nM] | IC50 (AsPC-1 cells) [nM] |
| --- | --- | --- | --- |
| CCc1c(F)ccc2cc(O)cc(-c3nc4c5c(nc(OCC6(CN7CC/C(=C\F)C7)CC6)nc5c3F)N3C[C@H]5CC[C@H](N5)[C@H]3[C@H](C)O4)c12 [Example 11, 5-Ethyl-6-fluoro-4-((5S,5aS,6S,9R)-1-fluoro-12-((1-(((E)-3-(fluoromethylene)pyrrolidin-1-yl)methyl)cyclopropyl)methoxy)-5-methyl-5a,6,7,8,9,10-hexahydro-5H-4-oxa-3,10a,11,13,14-pentaaza-6,9-methanonaphtho[1,8-ab]heptalen-2-yl)naphthalen-2-ol] | 0.7 | – | – |
| Cc1nc(N)cc(-c2nc3c4c(nc(OCC5(CN6CCC(=CF)CC6)CC5)nc4c2F)N2C[C@H]4CC[C@H](N4)[C@H]2[C@H](C)O3)c1C(F)(F)F [Example 42, 4-((5S,5aS,6S,9R)-1-Fluoro-12-((1-((4-(fluoromethylene)piperidin-1-yl)methyl)cyclopropyl)methoxy)-5-methyl-5a,6,7,8,9,10-hexahydro-5H-4-oxa-3,10a,11,13,14-pentaaza-6,9-methanonaphtho[1,8-ab]heptalen-2-yl)-6-methyl-5-(trifluoromethyl)pyridin-2-amine] | 0.21 | 5.2 | 1.8 |
| CCc1c(F)ccc2cc(O)cc(-c3nc4c5c(nc(OCC6(CN7CC8CC(=C(F)F)CC8C7)CC6)nc5c3F)N3C[C@H]5CC[C@H](N5)[C@H]3[C@H](C)O4)c12 (stereo partly drawn) [Example 14] | 1.6 | – | – |
| C=C1CN2CC(=C)CC2(COc2nc3c4c(nc(-c5cc(O)cc6ccc(F)c(CC)c56)c(F)c4n2)O[C@@H](C)[C@@H]2[C@@H]4CC[C@H](CN32)N4)C1 [Example 17, 4-((5S,5aS,6S,9R)-12-((2,6-Dimethylenetetrahydro-1H-pyrrolizin-7a(5H)-yl)methoxy)-1-fluoro-5-methyl-5a,6,7,8,9,10-hexahydro-5H-4-oxa-3,10a,11,13,14-pentaaza-6,9-methanonaphtho[1,8-ab]heptalen-2-yl)-5-ethyl-6-fluoronaphthalen-2-ol] | 0.9 | – | – |
| CCc1c(F)ccc2cc(O)cc(-c3nc4c5c(nc(OCC67CCCN6CC(=C(F)F)C7)nc5c3F)N3C[C@H]5CC[C@H](N5)[C@H]3[C@H](C)O4)c12 (stereo partly drawn) [Example 18, 4-((5S,5aS,6S,9R)-12-((2-(Difluoromethylene)tetrahydro-1H-pyrrolizin-7a(5H)-yl)methoxy)-1-fluoro-5-methyl-5a,6,7,8,9,10-hexahydro-5H-4-oxa-3,10a,11,13,14-pentaaza-6,9-methanonaphtho[1,8-ab]heptalen-2-yl)-5-ethyl-6-fluoronaphthalen-2-ol] | 1.2 | – | – |
| CCc1c(F)ccc2cc(O)cc(-c3nc4c5c(nc(OCC6(CN7CCOCC7)CC6)nc5c3F)N3C[C@H]5CC[C@H](N5)[C@H]3[C@H](C)O4)c12 [Example 5, 5-Ethyl-6-fluoro-4-((5S,5aS,6S,9R)-1-fluoro-5-methyl-12-((1-(morpholinomethyl)cyclopropyl)methoxy)-5a,6,7,8,9,10-hexahydro-5H-4-oxa-3,10a,11,13,14-pentaaza-6,9-methanonaphtho[1,8-ab]heptalen-2-yl)naphthalen-2-ol] | 0.9 | 8.7 | 5.7 |
| CCc1c(F)ccc2cc(O)cc(-c3nc4c5c(nc(OCC6(CN7CCC(=CF)CC7)CC6)nc5c3F)N3C[C@H]5CC[C@H](N5)[C@H]3[C@H](C)O4)c12 [Example 23, 5-Ethyl-6-fluoro-4-((5S,5aS,6S,9R)-1-fluoro-12-((1-((4-(fluoromethylene)piperidin-1-yl)methyl)cyclopropyl)methoxy)-5-methyl-5a,6,7,8,9,10-hexahydro-5H-4-oxa-3,10a,11,13,14-pentaaza-6,9-methanonaphtho[1,8-ab]heptalen-2-yl)naphthalen-2-ol] | 0.2 | – | 7.9 |
| C[C@@H]1Oc2nc(-c3ccc(F)c4sc(N)c(C#N)c34)c(F)c3nc(OCC4(CN5CCC(=C(F)F)CC5)CC4)nc(c23)N2C[C@H]3CC[C@H](N3)[C@@H]12 [Example 41, 2-Amino-4-((5S,5aS,6S,9R)-12-((1-((4-(difluoromethylene)piperidin-1-yl)methyl)cyclopropyl)methoxy)-1-fluoro-5-methyl-5a,6,7,8,9,10-hexahydro-5H-4-oxa-3,10a,11,13,14-pentaaza-6,9-methanonaphtho[1,8-ab]heptalen-2-yl)-7-fluorobenzo[b]thiophene-3-carbonitrile] | 0.4 | – | 3.7 |
| Cc1cc(N)c(F)c(-c2nc3c4c(nc(OCC5(CN6CCC(=CF)CC6)CC5)nc4c2F)N2C[C@H]4CC[C@H](N4)[C@H]2[C@H](C)O3)c1C(F)(F)F [Example 38, 2-Fluoro-3-((5S,5aS,6S,9R)-1-fluoro-12-((1-((4-(fluoromethylene)piperidin-1-yl)methyl)cyclopropyl)methoxy)-5-methyl-5a,6,7,8,9,10-hexahydro-5H-4-oxa-3,10a,11,13,14-pentaaza-6,9-methanonaphtho[1,8-ab]heptalen-2-yl)-5-methyl-4-(trifluoromethyl)aniline] | 0.07 | 5 | 1.7 |
| C[C@@H]1Oc2nc(-c3cc(N)cc(Cl)c3C(F)(F)F)c(F)c3nc(OCC4(CN5CCC(=CF)CC5)CC4)nc(c23)N2C[C@H]3CC[C@H](N3)[C@@H]12 [Example 36, 3-Chloro-5-((5S,5aS,6S,9R)-1-fluoro-12-((1-((4-(fluoromethylene)piperidin-1-yl)methyl)cyclopropyl)methoxy)-5-methyl-5a,6,7,8,9,10-hexahydro-5H-4-oxa-3,10a,11,13,14-pentaaza-6,9-methanonaphtho[1,8-ab]heptalen-2-yl)-4-(trifluoromethyl)aniline] | 0.06 | 0.9 | 0.2 |
| Cc1cc(N)c(F)c(-c2nc3c4c(nc(OCC5(CN6CCC(=C(F)F)CC6)CC5)nc4c2F)N2C[C@H]4CC[C@H](N4)[C@H]2[C@H](C)O3)c1C(F)(F)F [Example 40, 3-((5S,5aS,6S,9R)-12-((1-((4-(Difluoromethylene)piperidin-1-yl)methyl)cyclopropyl)methoxy)-1-fluoro-5-methyl-5a,6,7,8,9,10-hexahydro-5H-4-oxa-3,10a,11,13,14-pentaaza-6,9-methanonaphtho[1,8-ab]heptalen-2-yl)-2-fluoro-5-methyl-4-(trifluoromethyl)aniline] | 0.6 | – | – |

— patent US20260274861A1, “FUSED RING COMPOUND, PREPARATION METHOD THEREFOR AND MEDICINAL APPLICATION THEREOF” (JIANGSU HENGRUI PHARMACEUTICALS CO., LTD., priority 2022, published 2026)
